{"source": "patent US20160193316A1", "about": "(priority 1994, published 2016)", "key": {"[1]": {"target": "HLA-A*1101 (Homo sapiens, UniProt P04439, A114D/D185E/E176A/F33Y/L180Q/S129P/T187R)", "experiment": "HLA class I peptide binding assay"}, "[2]": {"target": "HLA-A*3101 (Homo sapiens, UniProt P04439, A270S/D185E/E176V/E277Q/F33T/G231S/G80R/H175R/I121M/I218V/I322F/K168Q/L300P/L318F/M331R/P217A/Q94H/R138Q/T323A/T345S/T97I/V358M)", "experiment": "HLA class I peptide binding assay"}, "[3]": {"target": "HLA-A*3301 (Homo sapiens, UniProt P04439, A270S/D185E/E176V/E277Q/E87N/F33T/G231S/H175R/I121M/I218V/I322F/K168Q/K210R/L300P/L318F/M331R/P217A/Q86R/Q94H/R138Q/T323A/T345S/T97I/V358M/Y195H)", "experiment": "HLA class I peptide binding assay"}, "[4]": {"test_system": "HLA-A3-supertype molecules (A3, A11, A*3101, A*3301, A*6801)", "type": "binding, human"}, "[5]": {"target": "HLA-A*0101 (Homo sapiens, UniProt P04439, A114D/A174V/A182V/D101N/D185E/E176A/E190D/L180R/Q94H/R68K/S129P/T187R/V100A/V91M/W191G)", "type": "binding"}, "[6]": {"target": "T1, HLA-B*0702 (Homo sapiens, UniProt P01889)", "T1 construct": "endogenous in cells; host or cells: GM3107", "experiment": "HLA class I peptide binding assay", "conditions": "Malaria B07 super motif peptides; binding value, no unit"}, "[7]": {"target": "T2, DRB1*0301 (DR3) (Homo sapiens, UniProt P01903+P01911, A100K/A102G/A103R/A169T/F55Y/I96L/K41T/L162R/M171V/P40S/Q125H/Q178H/Q39Y/R42S/S66N/T106N/T262R/W38E/Y61H)", "T2 construct": "endogenous in cells; host or cells: MAT", "experiment": "HLA class II peptide binding assay (pH 4.5)", "conditions": "DR3a motif peptides; unit not given; exemplary 15-mer containing the core sequence"}, "[8]": {"target": "T3, HLA-A*0301 (Homo sapiens, UniProt P04439)", "T3 construct": "endogenous in cells; host or cells: GM3107", "experiment": "HLA class I peptide binding assay", "conditions": "Malaria A3 motif peptides, Table XVI; binding value to HLA-A*0301, unit not given"}, "[9]": {"test_system": "T helper lymphocytes", "conditions": "regardless of HLA type, WO 95/07707; cited from earlier work"}}, "note": "Like-named read-outs stand apart in the source and are kept apart here. No end group written: not given here."}
{"substance": "FILVNLLIFH [Peptide 1167.46]", "values": [{"measurement": "IC50", "setting": "[1]", "value": 1330, "unit": "nM"}, {"measurement": "IC50", "setting": "[2]", "value": 1960, "unit": "nM"}, {"measurement": "IC50", "setting": "[3]", "value": 397, "unit": "nM"}, {"measurement": "Alleles bound", "setting": "[4]; A3-supermotif CTL epitopes, five A3-supertype alleles (Table XXVII)", "value": 2}, {"measurement": "Alleles bound", "setting": "[4]; A3-supertype peptides tested for binding to A*03, A*11, A*31011, A*3301, A*6801", "value": 2}, {"measurement": "Alleles bound", "setting": "[4]; A3-supertype, tested on A*03, A*11, A*31011, A*3301, A*6801, unfixed parent peptide", "value": 2}]}
{"substance": "HPSDGKCNLY", "values": [{"measurement": "A*0101 (binding information)", "setting": "[5]", "value": 0.0260}, {"measurement": "B*0702 (binding information)", "setting": "[6]", "value": 0.0001}]}
{"substance": "LPSENERGY", "values": [{"measurement": "A*0101 (binding information)", "setting": "[5]", "value": 0.6700}, {"measurement": "B*0702 (binding information)", "setting": "[6]", "value": "0,0001"}, {"measurement": "DR3 binding information", "setting": "[7]", "value": -0.0033}]}
{"substance": "PSDGKCNLY", "values": [{"measurement": "A*010I", "setting": "[5]", "value": 0.5400}, {"measurement": "A*0101 (binding information)", "setting": "[5]", "value": 0.5400}, {"measurement": "A*0301 (binding information)", "setting": "[8]", "value": 0.0002}, {"measurement": "A*1101 binding information", "setting": "[1]; Table XVII, malaria A11 motif peptides, binding value unit not given", "value": 0.0002}]}
{"substance": "aKXVWANTLKAAa", "values": [{"measurement": "Stimulation of T helper lymphocyte response", "setting": "[9]", "value": "stimulate the response of T helper lymphocytes from most individuals"}]}
